Source: patent US20210395651A1, “COMPOUNDS STABILIZING HYDROLASES IN LIQUIDS” (BASF SE, priority 2018, published 2021)

Biological target: T1, Lipolase® 100L (Thermomyces lanuginosus, UniProt O59952)
T1 construct: purchased Sigma-Aldrich
T1 sequence (O59952 23-291): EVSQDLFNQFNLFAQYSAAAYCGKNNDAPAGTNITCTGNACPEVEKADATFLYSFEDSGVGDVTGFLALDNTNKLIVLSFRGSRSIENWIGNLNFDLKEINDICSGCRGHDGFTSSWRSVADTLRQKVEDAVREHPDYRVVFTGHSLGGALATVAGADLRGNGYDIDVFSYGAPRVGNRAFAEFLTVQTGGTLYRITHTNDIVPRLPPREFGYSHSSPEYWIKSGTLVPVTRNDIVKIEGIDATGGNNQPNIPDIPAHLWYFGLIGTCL
Experiment: Lipase storage stability in liquid formulations at 37° C. (pNP-valerate activity)
Type: biochemical, Thermomyces lanuginosa
Settings: for lipase activity, 3 d: 3 d storage at 37° C.; for lipase activity, 7 d: 7 d storage at 37° C.; for lipase activity, 14 d: 14 d storage at 37° C.; for lipase activity, 21 d: 21 d storage at 37° C.; for lipase activity, 28 d: 28 d storage at 37° C.; for lipase activity, 35 d: 35 d storage at 37° C.; for lipase activity, T0: relative to 100% value of reference formulation at time 0
Method: The storage stability of Lipase was assessed at 37° C.
Base test formulations were manufactured by making base formulations I to V by mixing the components according to Table 1.
The respective component (a) or comparative compound was added, if applicable, to the respective base formulation in amounts as indicated in Table 1.
Lipase used: Lipolase® 100L (CAS-No. 9001-62-1, EC-No. 232-619-9) was purchased from Sigma-Aldrich.
The amount of lipase as provided in Table 1 refers to active protein.
Water was added to accomplish the balance to 100.
Lipolase activity at certain points in time as indicated in Table 2 was be determined by employing pNitrophenol-valerate (2.4 mM pNP-C5 in 100 mM Tris pH 8.0, 0.01% Triton X100) as a substrate. The absorption at 405 nm was measured at 20° C. every 30 seconds over 5 minutes.
The slope (absorbance increase at 405 nm per minute) of the time dependent absorption-curve is directly proportional to the activity of the lipase.
The […] activity values provided in Table 2 were calculated referring to the 100% value determined in the reference formulation at the time 0.
The nomenclature of formulations is as follows: the Roman number before the full stop characterizes the base formulation, the Arabian number the type of compound (A.# compound according to invention (component (a)); (B.#) comparative compound).

[1] = base formulation I. (Lipolase 0.2 wt%, tested compound 2.5 wt%)
[2] = base formulation II. (Lipolase 0.2 wt%, tested compound 2.5 wt%)
[3] = base formulation III. (Lipolase 0.2 wt%, tested compound 2.0 wt%)
[4] = base formulation IV. (Lipolase 0.2 wt%, tested compound 2.0 wt%)

Substance: Diethylcitrate [A.7]
- lipase activity, 3 d [1]: 97%
- lipase activity, 7 d [1]: 91%
- lipase activity, 14 d [1]: 85%
- lipase activity, 21 d [1]: 81%
- lipase activity, 28 d [1]: 76%
- lipase activity, 35 d [1]: 69%
- lipase activity, T0 [1]: 99%
- lipase activity, 3 d [2]: 94%
- lipase activity, 7 d [2]: 91%
- lipase activity, 14 d [2]: 86%
- lipase activity, 21 d [2]: 82%
- lipase activity, 28 d [2]: 77%
- lipase activity, 35 d [2]: 72%
- lipase activity, T0 [2]: 99%
- lipase activity, 3 d [3]: 96%
- lipase activity, 7 d [3]: 93%
- lipase activity, 14 d [3]: 87%
- lipase activity, 21 d [3]: 83%
- lipase activity, 28 d [3]: 77%
- lipase activity, 35 d [3]: 72%
- lipase activity, T0 [3]: 97%
- lipase activity, 3 d [4]: 95%
- lipase activity, 7 d [4]: 93%
- lipase activity, 14 d [4]: 88%
- lipase activity, 21 d [4]: 85%
- lipase activity, 28 d [4]: 80%
- lipase activity, 35 d [4]: 74%
- lipase activity, T0 [4]: 97%
